Values after ≈ are worked out from the molar mass of the structure shown.
Tests used:
[1] = tested on: Staphylococcus aureus; test: Inhibition of Staphylococcus aureus Topoisomerase 4 assessed as inhibition of supercoiled pBR322 DNA relaxation after 30 mins by agarose gel electrophoresis
[2] = target: DNA gyrase (Staphylococcus aureus) (UniProt P0A0K8+P20831)
DNA gyrase (Staphylococcus aureus), sequence (P0A0K8 2-644 limits assumed): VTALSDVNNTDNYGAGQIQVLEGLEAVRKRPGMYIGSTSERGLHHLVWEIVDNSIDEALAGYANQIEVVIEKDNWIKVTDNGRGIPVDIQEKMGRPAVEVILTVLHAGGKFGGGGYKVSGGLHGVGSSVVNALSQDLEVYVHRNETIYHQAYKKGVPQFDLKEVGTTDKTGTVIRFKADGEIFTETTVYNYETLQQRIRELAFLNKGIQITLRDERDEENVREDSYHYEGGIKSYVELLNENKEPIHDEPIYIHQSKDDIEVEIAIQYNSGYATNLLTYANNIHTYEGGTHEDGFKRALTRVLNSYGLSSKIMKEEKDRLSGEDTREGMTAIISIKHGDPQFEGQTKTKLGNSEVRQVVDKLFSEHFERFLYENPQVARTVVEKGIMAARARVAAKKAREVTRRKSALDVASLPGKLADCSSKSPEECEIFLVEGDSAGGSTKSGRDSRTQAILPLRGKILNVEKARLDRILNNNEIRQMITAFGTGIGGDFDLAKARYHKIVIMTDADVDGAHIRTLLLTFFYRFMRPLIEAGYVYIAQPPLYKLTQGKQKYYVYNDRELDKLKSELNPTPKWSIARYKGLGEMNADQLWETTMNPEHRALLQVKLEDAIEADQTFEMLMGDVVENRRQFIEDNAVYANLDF
DNA gyrase (Staphylococcus aureus), sequence (P20831 whole entry partner): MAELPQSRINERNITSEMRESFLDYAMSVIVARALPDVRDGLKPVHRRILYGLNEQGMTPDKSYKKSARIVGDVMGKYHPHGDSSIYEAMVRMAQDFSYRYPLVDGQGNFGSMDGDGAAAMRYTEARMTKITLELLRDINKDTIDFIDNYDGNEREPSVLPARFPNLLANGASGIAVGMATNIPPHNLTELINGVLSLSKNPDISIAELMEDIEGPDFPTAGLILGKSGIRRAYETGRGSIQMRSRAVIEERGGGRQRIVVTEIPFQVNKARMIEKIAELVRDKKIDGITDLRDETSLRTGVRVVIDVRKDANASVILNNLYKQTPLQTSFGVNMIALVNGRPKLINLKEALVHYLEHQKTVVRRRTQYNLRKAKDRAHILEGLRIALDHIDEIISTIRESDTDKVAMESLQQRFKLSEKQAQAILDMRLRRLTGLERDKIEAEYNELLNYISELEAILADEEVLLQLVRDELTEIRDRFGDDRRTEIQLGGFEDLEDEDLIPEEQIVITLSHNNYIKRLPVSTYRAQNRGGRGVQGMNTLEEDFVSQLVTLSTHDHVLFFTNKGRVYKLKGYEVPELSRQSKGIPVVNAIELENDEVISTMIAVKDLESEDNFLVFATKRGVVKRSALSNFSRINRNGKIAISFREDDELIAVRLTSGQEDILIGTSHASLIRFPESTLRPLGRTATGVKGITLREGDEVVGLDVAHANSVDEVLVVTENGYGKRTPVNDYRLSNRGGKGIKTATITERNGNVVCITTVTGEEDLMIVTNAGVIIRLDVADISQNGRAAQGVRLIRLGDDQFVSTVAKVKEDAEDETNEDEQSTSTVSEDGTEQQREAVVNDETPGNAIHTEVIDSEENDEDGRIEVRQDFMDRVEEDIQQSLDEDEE
Description: Inhibition of Staphylococcus aureus DNA gyrase assessed as inhibition of negative supercoiling of pBR322 DNA after 30 mins by agarose gel electrophoresis

Structure (SMILES) | MIC [1] | MIC [2]
O=C(O)[C@H](Cc1ccccc1)N1C(=O)/C(=C/c2cccc(-c3ccccc3)c2)SC1=S | 0.5 µM (≈ 0.223 µg/mL) | 17.5 µM (≈ 7.8 µg/mL)
O=C(O)[C@H](Cc1ccccc1)N1C(=O)/C(=C/c2cccc(Oc3ccc(Cl)c(Cl)c3)c2)SC1=S | 2.5 µM (≈ 1.33 µg/mL) | 5 µM (≈ 2.65 µg/mL)
O=C(O)[C@H](Cc1ccccc1)N1C(=O)/C(=C/c2cccc(Oc3cccc(Cl)c3)c2)SC1=S | 7.5 µM (≈ 3.72 µg/mL) | 10 µM (≈ 4.96 µg/mL)
O=C(O)[C@H](Cc1ccccc1)N1C(=O)/C(=C/c2cccc(Cc3ccc(Cl)c(Cl)c3)c2)SC1=S | 0.75 µM (≈ 0.396 µg/mL) | 7.5 µM (≈ 3.96 µg/mL)
O=C(O)[C@H](Cc1ccccc1)N1C(=O)/C(=C/c2cccc(Oc3ccccc3)c2)SC1=S | 10 µM (≈ 4.62 µg/mL) | 50 µM (≈ 23.1 µg/mL)
O=C(O)[C@@H](Cc1ccccc1)N1C(=O)/C(=C/c2cccc(Oc3ccc(F)cc3)c2)SC1=S | 5 µM (≈ 2.4 µg/mL) | 17.5 µM (≈ 8.39 µg/mL)
O=C(O)[C@H](Cc1ccccc1)N1C(=O)/C(=C/c2cccc(-c3ccc(Cl)c(Cl)c3)c2)SC1=S | 10 µM (≈ 5.14 µg/mL) | 5 µM (≈ 2.57 µg/mL)
O=C(O)[C@H](Cc1ccccc1)N1C(=O)/C(=C/c2cccc(Cc3ccccc3)c2)SC1=S | 17.5 µM (≈ 8.04 µg/mL) | 25 µM (≈ 11.5 µg/mL)
CO[C@@H]1[C@@H](OC(N)=O)[C@@H](O)[C@H](Oc2ccc3c(O)c(NC(=O)c4ccc(O)c(CC=C(C)C)c4)c(=O)oc3c2C)OC1(C)C | 2.5 µM (≈ 1.53 µg/mL) | 
O=C(O)[C@H](Cc1ccccc1)N1C(=O)/C(=C/c2cccc(OC/C=C\c3ccccc3)c2)SC1=S | 5 µM (≈ 2.51 µg/mL) | 10 µM (≈ 5.02 µg/mL)
O=C(O)[C@H](Cc1ccccc1)N1C(=O)/C(=C/c2cccc(OCc3ccccc3)c2)SC1=S | 17.5 µM (≈ 8.32 µg/mL) | 25 µM (≈ 11.9 µg/mL)
O=C(c1ccccc1)c1cccc(/C=C2\SC(=S)N([C@@H](Cc3ccccc3)C(=O)O)C2=O)c1 | 50 µM (≈ 23.7 µg/mL) | 50 µM (≈ 23.7 µg/mL)

Reference: ChEMBL document CHEMBL3612050, “Dual inhibition of Staphylococcus aureus DNA gyrase and topoisomerase IV activity by phenylalanine-derived (Z)-5-arylmethylidene rhodanines” (Bioorg Med Chem, 2015)
